Experiments:
Lolium HPPD = assay: HPPD activity assay, Lolium HPPD; format: biochemical; details: normalized on Hordeum HPPD
Protocol: (§1) HPPD produces homogentisic acid and CO2 from 4-hydroxyphenylpyruvate (4-HPP) and O2. The activity assay for HPPD is based on the analysis of homogentisic acid by reversed phase HPLC.
(§2) The assay mixture can contain 150 mM potassium phosphate buffer pH 7.0, 50 mM L-ascorbic acid, 1 μM FeSO4 and 7 μg of purified enzyme in a total volume of 1 ml. Inhibitors are dissolved in DMSO (dimethylsulfoxide) to a concentration of 20 mM or 0.5 mM, respectively. From this stock solution serial five-fold dilutions are prepared in DMSO, which are used in the assay. The respective inhibitor solution accounts for 1% of the assay volume. […]
Activities are normalized by setting the uninhibited enzyme activity to 100%. […] values are calculated using non-linear regression. […]
(§3) Inhibitors are dissolved in DMSO (dimethylsulfoxide) to a concentration of 0.5 mM. […] IC50 values are calculated using non-linear regression.
Using methods which are described in the above examples or well known in the art, purified, recombinant wildtype HPPD enzymes are characterized with respect to their kinetic properties and sensitivity towards HPPD inhibiting herbicides. Apparent michaelis constants (Km) and maximal reaction velocities (Vmax) are calculated by non-linear regression with the software GraphPad Prism 5 (GraphPad Software, La Jolla, USA) using a substrate inhibition model. […]

[1] = target: T1, Hordeum HPPD variant L320N (Hordeum vulgare, UniProt O48604, A164G/L320N/R146V/R147D/R148G); assay: HPPD activity assay, Hordeum HPPD mutant L320N; format: biochemical; details: normalized on wildtype
T1 construct: His6; made in house; host or cells: E. coli BL21 (DE3)
Protocol: as §1
as §2, with “volume. Thus, final inhibitor concentrations range from 200 μM to 2.5 nM or from 5 μM to 63 pM, respectively. After a preincubation of 30 min the reaction is started by adding 4-HPP to a final concentration of 0.1 mM.” for “volume.”
as §3
(§4) Purified, mutant HPPD enzymes are obtained by the methods described above. […] Apparent michaelis constants (Km) and maximal reaction velocities (Vmax) are calculated by non-linear regression with the software GraphPad Prism 5 (GraphPad Software, La Jolla, USA) using a substrate inhibition model. […] Weighted means (by standard error) of Km and […] values are calculated from at least three independent experiments. […]

[2] = target: T2, Hordeum HPPD variant V212L (Hordeum vulgare, UniProt O48604, A164G/R146V/R147D/R148G/V212L); assay: HPPD activity assay, Hordeum HPPD mutant V212L; format: biochemical; details: normalized on wildtype
T2 construct: His6; made in house; host or cells: E. coli BL21 (DE3)
Protocol: as §1
as §2, with “volume. Thus, final inhibitor concentrations range from 200 μM to 2.5 nM or from 5 μM to 63 pM, respectively. After a preincubation of 30 min the reaction is started by adding 4-HPP to a final concentration of 0.1 mM.” for “volume.”
as §3, §4

[3] = target: T3, Hordeum HPPD variant L320H, P321A (Hordeum vulgare, UniProt O48604, L320H/P321A); assay: HPPD activity assay, Hordeum HPPD mutant L320H, P321A; format: biochemical; details: normalized on wildtype
T3 construct: His6; made in house; host or cells: E. coli BL21 (DE3)
Protocol: as §1
as §2, with “volume. Thus, final inhibitor concentrations range from 200 μM to 2.5 nM or from 5 μM to 63 pM, respectively. After a preincubation of 30 min the reaction is started by adding 4-HPP to a final concentration of 0.1 mM.” for “volume.”
as §3, §4

[4] = tested on: transgenic Arabidopsis plants overexpressing Barley HPPD (Seq ID: 2); assay: Arabidopsis growth inhibition in 48-well plates, line overexpressing Barley HPPD; format: in vivo, Arabidopsis thaliana; details: Barley HPPD (Seq ID: 2) overexpression line; plant growth IC50 of transgenic divided by wildtype
Protocol: Depending on the species, the plants are kept at 10-25° C. or 20-35° C. The test period extends over 3 weeks. During this time, the plants are tended and their response to the individual treatments is evaluated. Herbicide injury evaluations are taken at 2 and 3 weeks after treatment. Plant injury is rated on a scale of 0 to 9, 0 being no injury and 9 being complete death. Tolerance to coumarone-derivative herbicides can also be assessed in Arabidopsis. In this case transgenic Arabidopsis thaliana plants are assayed for improved tolerance to coumarone-derivative herbicides in 48-well plates. Seeds are surface sterilized by stirring for 5 min in ethanol+water (70+30 by volume), rinsing one time with ethanol+water (70+30 by volume) and two times with a sterile, deionized water. The seeds are resuspended in 0.1% agar dissolved in water (w/v). Four to five seeds per well are plated on solid nutrient medium consisting of half-strength Murashige Skoog nutrient solution, pH 5.8 (Murashige and Skoog (1962) Physiologia Plantarum 15: 473-497). […] Seven to ten days after seeding growth inhibition is evaluated by comparison to wild type plants. Tolerance factor is calculated by dividing the plant growth IC50 value of transgenic plants containing a HPPD and/or HST sequence by that of wildtype plants. […]

T1 sequence (O48604 whole entry R146V/R147D/R148G/A164G/L320N): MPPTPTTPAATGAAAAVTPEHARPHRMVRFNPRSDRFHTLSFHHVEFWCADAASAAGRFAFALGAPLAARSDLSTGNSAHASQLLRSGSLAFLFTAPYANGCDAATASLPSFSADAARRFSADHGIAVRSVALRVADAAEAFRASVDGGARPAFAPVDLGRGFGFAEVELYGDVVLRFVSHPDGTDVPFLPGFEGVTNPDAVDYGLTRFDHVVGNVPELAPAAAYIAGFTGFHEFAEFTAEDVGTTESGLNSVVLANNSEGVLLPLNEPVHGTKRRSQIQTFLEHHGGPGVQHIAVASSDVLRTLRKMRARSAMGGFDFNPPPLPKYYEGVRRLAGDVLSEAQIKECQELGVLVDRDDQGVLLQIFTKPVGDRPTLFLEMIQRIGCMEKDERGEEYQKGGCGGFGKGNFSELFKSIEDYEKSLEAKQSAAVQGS
T2 sequence (O48604 whole entry R146V/R147D/R148G/A164G/V212L): as the sequence (O48604 whole entry R146V/R147D/R148G/A164G/L320N) above, with V212L, N320L counted along it
T3 sequence (O48604 whole entry R146V/R147D/R148G/A164G/L320H/P321A): as the sequence (O48604 whole entry R146V/R147D/R148G/A164G/L320N) above, with N320H, P321A counted along it

Compound | Normalized tolerance index (TI) (Lolium HPPD) | Normalized tolerance index (TI) [1] | Normalized tolerance index (TI) [2] | Normalized tolerance index (TI) [3] | Tolerance factor [4]
CC1=NOC(c2c(Cl)ccc(C3=C(O)c4ncccc4N(CC(F)F)S3(=O)=O)c2Cl)C1 (stereo not shown) [Inhibitor 1, 3-[2,4-dichloro-3-(3-methyl-4,5-dihydroisoxazol-5-yl)phenyl]-1-(2,2-difluoroethyl)-2,2-dioxo-pyrido[3,2-c]thiazin-4-ol] | 6.5 | 3.3 | 2.6 | 6.5 | 3
O=S1(=O)C(c2c(Cl)cc(Cl)nc2Cl)=C(O)c2ncccc2N1CC(F)F [Inhibitor 2, 1-(2,2-difluoroethyl)-2,2-dioxo-3-(2,4,6-trichloro-3-pyridyl)pyrido[3,2-c]thiazin-4-ol] | 5.6 | 1.7 | 0.5 | 3.7 | 4

Source: patent publication US10801035B2, “Plants having increased tolerance to herbicides” (BASF SE, priority 2011, dated 2020)
